These results are taken from ChEMBL document CHEMBL3392963, “Piperazine derivatives: synthesis, inhibition of the Mycobacterium tuberculosis enoyl-acyl carrier protein reductase and SAR studies” (Eur J Med Chem, 2015).

pIC50: −log10 of the molar value. ≈ marks a conversion by molar mass, not a printed value. Calls of active or inactive are those of the source. The rule behind the calls is not given here.

Experiment [1] addresses T1, Enoyl-[acyl-carrier-protein] reductase [NADH] (Mycobacterium tuberculosis, UniProt P9WGR1).
T1 sequence (P9WGR1 whole entry): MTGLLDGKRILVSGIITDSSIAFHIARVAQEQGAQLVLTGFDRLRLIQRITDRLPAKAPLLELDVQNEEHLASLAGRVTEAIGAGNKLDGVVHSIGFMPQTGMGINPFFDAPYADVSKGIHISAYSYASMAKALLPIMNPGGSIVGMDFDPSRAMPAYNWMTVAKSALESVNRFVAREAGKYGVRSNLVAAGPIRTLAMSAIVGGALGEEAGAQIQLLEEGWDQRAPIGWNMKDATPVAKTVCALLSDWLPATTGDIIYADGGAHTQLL
In words: Inhibition of Mycobacterium tuberculosis recombinant InhA assessed as NADH oxidation to NAD+ using 2-trans-dodecenoyl-CoA substrate by UV/visible spectrophotometry.

Experiment [2] concerns the target T2, Enoyl-[acyl-carrier-protein] reductase [NADH] (Mycobacterium tuberculosis) (UniProt P9WGR1).
T2 sequence (whole entry): T1 sequence (P9WGR1 whole entry)
Description: Inhibition of Mycobacterium tuberculosis recombinant InhA assessed as NADH oxidation to NAD+ at 0.2 uM using 2-trans-dodecenoyl-CoA substrate measured up to 30 mins by UV/visible spectrophotometry

Experiment [3] concerns the target T2, Enoyl-[acyl-carrier-protein] reductase [NADH] (Mycobacterium tuberculosis). This is another data set of the same source.
Description: Non-competitive inhibition of Mycobacterium tuberculosis recombinant InhA assessed as inhibitory dissociation constant for the enzyme-substrate-inhibitor complex by measuring NADH oxidation to NAD+ using varying 2-trans-dodecenoyl-CoA substrate and fixed NADH levels by UV/visible spectrophotometry
The target is the same in experiment [4]. This is another data set of the same source.
Description: Non-competitive inhibition of Mycobacterium tuberculosis recombinant InhA assessed as inhibitory dissociation constant for the enzyme-inhibitor complex by measuring NADH oxidation to NAD+ using varying 2-trans-dodecenoyl-CoA substrate and fixed NADH levels by UV/visible spectrophotometry
The target is the same in experiment [5]. This is another data set of the same source.
Description: Uncompetitive inhibition of Mycobacterium tuberculosis recombinant InhA assessed as inhibitory dissociation constant for the enzyme-substrate-inhibitor complex by measuring NADH oxidation to NAD+ using fixed 2-trans-dodecenoyl-CoA substrate and varying NADH levels by UV/visible spectrophotometry
For experiment [6], the system named is Mycobacterium tuberculosis. In words: Antimycobacterial activity against Mycobacterium tuberculosis H37Rv assessed as inhibition of mycobacterial growth after 7 days by REMA method. Conditions: 168 h.
The target in experiment [7] is T2, Enoyl-[acyl-carrier-protein] reductase [NADH] (Mycobacterium tuberculosis). This is another data set of the same source.
Description: Competitive inhibition of Mycobacterium tuberculosis recombinant InhA assessed as inhibitory dissociation constant for the enzyme-inhibitor complex by measuring NADH oxidation to NAD+ using varying 2-trans-dodecenoyl-CoA substrate and fixed NADH levels by UV/visible spectrophotometry

As usually defined, the pIC50 is the IC50 on a negative log10 scale, so that one unit is a factor of ten. `O=C(c1cc(F)ccc1F)N1CCN(C(c2ccccc2)c2ccccc2)CC1`: the pIC50 in experiment [1] is below 4.30.
`O=C(c1ccc(Cl)cc1)N1CCN(C2c3ccccc3-c3ccccc32)CC1`: the TDI entry in experiment [2] was “inactive”. Further, the results for the Kii in experiment [3] and in experiment [5] were 2 µM and 1.12 µM, respectively. Also, the pIC50 in experiment [1] was 5.77. The Kis in experiment [4] worked out at 2.77 µM.
As a reminder, the MIC is the lowest concentration found to suppress growth. On to `O=C(c1cc(F)ccc1F)N1CCN(C2c3ccccc3-c3ccccc32)CC1`, for which the TDI result in experiment [2] was “inactive”. Also, the Kii is 3.25 µM in experiment [3] and 1.28 µM in experiment [5]. The pIC50 in experiment [1] is 5.80. For the same compound, in experiment [6], the MIC was above 15.3 µM. This compound also yielded a Kis in experiment [4] of 0.788 µM.
In the case of `O=S(=O)(c1ccccc1)N1CCN(C2c3ccccc3-c3ccccc32)CC1`, the pIC50 in experiment [1] is 4.70.
With `O=C(c1ccc(F)cc1)N1CCN(C2c3ccccc3-c3ccccc32)CC1`, the TDI entry in experiment [2] was “inactive”. In experiment [7], this compound yielded a Kis of 0.338 µM. Moreover, the pIC50 in experiment [1] is 6.40. In addition, in experiment [6], the MIC amounted to 67.8 µM (≈ 25.3 µg/mL). The compound also came in with a Kii in experiment [5] of 0.348 µM.
Turning to `O=C(c1ccncc1)N1CCN(C2c3ccccc3-c3ccccc32)CC1`, in experiment [1], the pIC50 is 5.01.
`O=C(c1ccccc1)N1CCN(C2c3ccccc3-c3ccccc32)CC1`: the negative logarithm of the IC50 (pIC50) in experiment [1] was 6.74. For the same compound, the MIC in experiment [6] is above 35.2 µM.
Consider `O=C(c1ccc([N+](=O)[O-])cc1)N1CCN(C2c3ccccc3-c3ccccc32)CC1`, for which, in experiment [1], the pIC50 was below 4.30.
For `COc1ccc(C(=O)N2CCN(C(c3ccccc3)c3ccccc3)CC2)cc1`, in experiment [1], the negative logarithm of the IC50 (pIC50) was below 4.30.
The same measure, in the same setting: the figure for `O=S(=O)(c1ccccc1)N1CCN(C(c2ccccc2)c2ccccc2)CC1` is below 4.30; for `Cc1ccc(C(=O)N2CCN(C(c3ccccc3)c3ccccc3)CC2)cc1` it is 5.11.
Take `Cc1ccc(C(=O)N2CCN(C3c4ccccc4-c4ccccc43)CC2)cc1`: in experiment [1], the negative-log IC50 (pIC50) was 6.65. Also, in experiment [6], the MIC stood at 67.8 µM (≈ 25 µg/mL).
For `O=C(c1ccccc1)N1CCN(C(c2ccccc2)c2ccccc2)CC1`, the negative-log IC50 (pIC50) in experiment [1] was 4.80.
Still for that read-out and setting: the figure for `Cc1ccccc1C(=O)N1CCN(C2c3ccccc3-c3ccccc32)CC1` is 5.22.
With `COc1ccc(C(=O)N2CCN(C3c4ccccc4-c4ccccc43)CC2)cc1`, the TDI result in experiment [2] was “inactive”. The Kii in experiment [3] was found to be 7.22 µM; in experiment [5], 1.95 µM. Moreover, the pIC50 in experiment [1] was 5.54. In experiment [4], the Kis was 1.6 µM.
Consider `O=C(/C=C/c1ccccc1)N1CCN(C2c3ccccc3-c3ccccc32)CC1`, for which the negative logarithm of the IC50 (pIC50) in experiment [1] was below 4.30.
As for `O=C(c1ccc(Cl)cc1)N1CCN(C(c2ccccc2)c2ccccc2)CC1`, the pIC50 in experiment [1] is below 4.30.
In the case of `O=C(c1ccc(F)cc1)N1CCN(C(c2ccccc2)c2ccccc2)CC1`, the pIC50 in experiment [1] was below 4.30.
On to `O=C(CN1CCN(C2c3ccccc3-c3ccccc32)CC1)Nc1ccccc1`, for which the pIC50 in experiment [1] was below 4.30.
On to `c1ccc(CN2CCN(C3c4ccccc4-c4ccccc43)CC2)cc1`, for which the pIC50 in experiment [1] was below 4.30.
With `Cc1cccc(C(=O)N2CCN(C3c4ccccc4-c4ccccc43)CC2)c1`, in experiment [2], the TDI result was “inactive”. In addition, the Kii in experiment [3] stood at 0.348 µM; in experiment [5], 0.185 µM. Also, in experiment [1], the pIC50 was 6.60. For the same compound, the minimal inhibitory concentration (MIC) in experiment [6] was above 16.2 µM. Further, in experiment [4], the Kis came out at 0.162 µM.
On to `O=C(c1ccccc1F)N1CCN(C2c3ccccc3-c3ccccc32)CC1`, for which the TDI entry in experiment [2] was “inactive”. Also, the Kii in experiment [3] amounted to 0.66 µM; in experiment [5], 0.332 µM. The pIC50 in experiment [1] was 6.44. Further, the MIC in experiment [6] is above 16.1 µM. Moreover, in experiment [4], the Kis was determined as 0.149 µM.
As for `O=C(/C=C/c1ccccc1)N1CCN(C(c2ccccc2)c2ccccc2)CC1`, the negative-log IC50 (pIC50) in experiment [1] is below 4.30.
In the case of `O=C(c1cccc(F)c1)N1CCN(C2c3ccccc3-c3ccccc32)CC1`, in experiment [2], the TDI entry was “inactive”. The same compound returned a Kis in experiment [7] of 0.118 µM. In addition, the pIC50 in experiment [1] was 6.62. Besides, the MIC in experiment [6] is above 16.1 µM. Further, the Kii in experiment [5] stood at 0.147 µM.
As to `Cc1ccccc1S(=O)(=O)N1CCN(C2c3ccccc3-c3ccccc32)CC1`, in experiment [1], the negative logarithm of the IC50 (pIC50) was below 4.30.
